These results are taken from article PMC6080781, “ATP competes with PIP2 for binding to gelsolin” (PLoS ONE, 2018).

In data set [1] the test system is gelsolin. To be noted: equilibrium dialysis, high NaCl concentrations, cited from earlier work. In general terms: Equilibrium dialysis compares concentrations on both sides of a semipermeable membrane.
Data set [2] in a line: Fluorescence emission of ATP-N with cations in the absence of gelsolin (precipitation). The format is physicochemical. As for the experimental part: Supplementary file pone.0201826.s005.pdf: S5 Fig Assessment of the effects of calcium and ATP on the binding of ATP-N and PIP2-F to gelsolin. (A) Kds were calculated from the fit data with Eq 2 of gelsolin:PIP2-F binding under different calcium concentrations in the absence or presence of ATP. In the absence of ATP, PIP2-F (0.5 μM) binds to gelsolin, as reflected by thehigh affinity, across a wide range of calcium concentrations. […] (B) In the absence of gelsolin, calcium directly precipitates ATP-N (C, open triangles) with a half-maximum value of 70.4 ± 0.7 μM. Magnesium has no effect on the fluorescence emission of ATP-N either in the absence (M, orange circles) or presence of 10 μM calcium (MC, purple squares). Data were fitted with simple sigmoidal curves. (C) The reported FURA-2FF dissociation constant for calcium ions is 25 μM (A.G. Scientific Inc.). The calcium-dependent fluorescence emission profile of FURA-2FF (2 μM) over pCa range of 5–7 was similar in the presence and absence of 20 μM PIP2, which were fitted with simple sigmoidal curves. […] The measurement was carried out with a Perkin Elmer LS-55 spectrofluorimeter (λex = 340 nm, λem = 505 nm). (PDF) Click here for additional data file.

The target of data set [3] is T1, gelsolin (Homo sapiens, UniProt P06396).
T1 construct: His tag (cleaved yes); made in house; host or cells: E. coli Rosetta2 (DE3) pLysS, pSY5 plasmid
T1 sequence (P06396 28-782): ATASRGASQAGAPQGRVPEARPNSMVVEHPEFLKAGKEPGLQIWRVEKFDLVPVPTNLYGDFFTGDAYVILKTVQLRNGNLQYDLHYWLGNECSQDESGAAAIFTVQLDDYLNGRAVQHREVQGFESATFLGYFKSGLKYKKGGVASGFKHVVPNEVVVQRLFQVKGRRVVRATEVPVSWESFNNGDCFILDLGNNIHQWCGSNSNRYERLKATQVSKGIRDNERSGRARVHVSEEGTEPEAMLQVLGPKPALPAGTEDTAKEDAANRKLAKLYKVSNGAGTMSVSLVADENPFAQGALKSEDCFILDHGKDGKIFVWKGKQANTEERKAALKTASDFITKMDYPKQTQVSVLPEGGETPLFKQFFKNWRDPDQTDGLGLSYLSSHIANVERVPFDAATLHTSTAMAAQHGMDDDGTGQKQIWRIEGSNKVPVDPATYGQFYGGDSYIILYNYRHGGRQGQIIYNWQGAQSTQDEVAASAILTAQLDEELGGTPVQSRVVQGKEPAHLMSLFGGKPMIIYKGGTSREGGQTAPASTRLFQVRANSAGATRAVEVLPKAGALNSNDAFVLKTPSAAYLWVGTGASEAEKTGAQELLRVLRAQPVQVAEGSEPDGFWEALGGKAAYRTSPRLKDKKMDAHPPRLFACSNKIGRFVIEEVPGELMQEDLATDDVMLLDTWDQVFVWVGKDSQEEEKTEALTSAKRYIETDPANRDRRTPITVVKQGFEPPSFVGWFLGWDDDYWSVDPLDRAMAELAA
Briefly: Steady-state fluorescence anisotropy of ATP-N binding to gelsolin. The protocol:
(§1) His-tagged human wild-type gelsolin was expressed in E. coli strain Rosetta2 (DE3) pLysS cells from a pSY5 plasmid. […] Traces of calcium were removed by dialysis (2 mM Tris-HCl, 1 mM EGTA, pH 7.4, overnight). Rabbit skeletal muscle actin was prepared from acetone powder (Pel-Freez Biologicals) in a protocol modified from Spudich and Watt. Actin was stored in buffer A (2 mM Tris-HCl, 0.2 mM ATP (ATP disodium trihydrate, Sigma-Aldrich), 0.1 mM CaCl2 (pCa 4), 0.1 mM DTT and 0.005% NaN3, pH 7.4). Alexa Fluor^TM 488 C5 Maleimide (Life Technologies) was used to label cysteine residues of gelsolin based on the manufacturer’s recommendations (Thermo Fisher Scientific).
(§2) We used a fluorescent derivative of PIP2 (PtdIns-(4,5)-P2-fluorescein, Cayman Chemicals, NU-10010388, λex = 493 nm, λem = 520 nm, abbreviated as PIP2-F) and a fluorescent derivative of ATP (N^6-(6-amino)hexyl-ATP-ATTO-532, Jena Bioscience, NU-805-532, λex = 532 nm, λem = 553 nm, abbreviated as ATP-N) as probes for the binding of PIP2 and ATP to gelsolin. Fluorescence intensities were measured on a Safire^2 monochromator microplate reader (TECAN) at 22°C. Steady-state fluorescence anisotropy values were determined according to Eq 1 [65], where IVV and IVH, respectively, are the intensities of vertically and horizontally polarized emission on excitation with vertically polarized light, with the correction factor, G, being the ratio of IVH/IVV.
(§3) The dissociation constants for ATP and PIP2 were calculated using a hyperbolic model from anisotropy data that had reached saturation during the gelsolin titrations Eq 2: r=rf+(rb−rf)(Kd+[G]+[L]−(Kd+[G]+[L])^2−4[G][L]/2[L]) (2) where rf is the anisotropy of free ligand, rb is the anisotropy of gelsolin-bound ligand, [L] is the total concentration of ligand, Kd is the dissociation constant and [G] is the total concentration of gelsolin. The anisotropy of 0.5 μM ATP-N was measured in the presence of gelsolin concentrations: 0, 0.2, 1.5, 2, 3, 5 and 8 μM. Saturation was evident at 5 μM characterized by an anisotropy value of 0.15 ± 0.006. The calcium and magnesium sensitivities of ATP binding to gelsolin were characterized by the change in anisotropy of solutions containing 0.5 μM ATP-N in the presence of 5 μM of gelsolin over a range of divalent cation concentrations of pCa 2–12 or pMg 1–12, where pCa and pMg refer to[…]. […] Anisotropy of 0.5 μM or 0.25 μM solutions of PIP2-F in the presence of 5 μM gelsolin was used to probe the changes in binding of the complexes under different calcium, magnesium, salt and ATP conditions.
In general terms: Polarisation of emitted light reports the rotation of a fluorescent probe.

In data set [4] the target is T1, gelsolin. Description: Steady-state fluorescence anisotropy of PIP2-F binding to gelsolin. The protocol:
as §1, §2
as §3, with “Saturation was evident at 5 μM characterized by an anisotropy value of 0.15 ± 0.006.” left out

Details of data set [5]: method as in A.G. Scientific Inc. Conditions: ref A.G. Scientific Inc.; read-out: dissociation constant for calcium ions; cited from earlier work.
The nature of data set [6]: Critical micelle concentration by dynamic light scattering. The format is physicochemical. As for the experimental part:
tested, PIP2-F was free from micelle formation at concentrations of 0.5 µM or below, whereas […]
Methods: The critical micelle concentrations of PIP2 and 1-(1-octadecanoyl-fluorescein-2R-octadecanoylphosphatidyl)inositol-4,5-bisphosphate (Cayman Chemical, abbreviated as PIP2-F) were determined by dynamic light scattering (Huang et al., 2011). Fifty microliter samples were prepared by serial dilution of PIP2 or PIP2-F into a low salt buffer (2 mM Tris-HCl, pH 7.4), or the same buffer supplemented with 100 mM KCl, 1 mM MgCl2, and/or 1 mM CaCl2. After incubation for 30 min, the samples were centrifuged at 15,000 x g for 10 min, transferred into a 384-well clear bottom plate, and light scattering was measured using a Wyatt Dynapro plate reader at room temperature. The concentrations of PIP2-F were subsequently determined by light absorbance at 494 nm with a Nanodrop spectrophotometer. […]
Huang, W., Jiang, D., Wang, X., Wang, K., Sims, C. E., Allbritton, N. L. and Zhang, Q.

Setting [7] is: 0.5 μM ATP-N, 5 μM gelsolin, sigmoidal fitting.

Read-outs that look alike come from different tables or passages of the source.

For `Nc1ncnc2c1ncn2[C@@H]1O[C@H](COP(=O)(O)OP(=O)(O)O)[C@@H](O)[C@H]1O` [ADP], the association with gelsolin entry in the data set on gelsolin [1] is reported as “no significant association”.

Consider `Nc1nc2c(ncn2[C@@H]2O[C@H](COP(=O)(O)OP(=O)(O)O)[C@@H](O)[C@H]2O)c(=O)[nH]1` [GDP], for which, in the data set with gelsolin [1], the association with gelsolin entry was “no significant association”.

`Nc1nc2c(ncn2[C@@H]2O[C@H](COP(=O)(O)OP(=O)(O)OP(=O)(O)O)[C@@H](O)[C@H]2O)c(=O)[nH]1` [GTP]: the Kd at gelsolin [1] (read-out: dissociation constant for gelsolin) was 1800 nM.

For the compound `[Ca+2]` [calcium], the “half-maximum value of calcium for precipitation of ATP-N” value in data set [2] worked out at 70.4 ± 0.7 µM. Also, the “inflection point (pCa) of ATP-N anisotropy decrease” value on gelsolin [3] (setting [7]) was found to be 5.2. Further, the IC50 at gelsolin [3] (0.5 μM ATP-N, 5 μM gelsolin, read-out: calcium concentration at which 50% of ATP-N remains bound to gelsolin) was 0.0063 ± 0.0002 mM.

As for `[Mg+2]` [magnesium], the “magnesium concentration above which the ATP effect on gelsolin/PIP2-F is diminished” value at gelsolin [4] (0.5 mM ATP, 0.5 μM PIP2-F, 5 μM gelsolin) was “above 7 mM”. In data set [2] (absence or presence of 10 μM calcium), the “effect on the fluorescence emission of ATP-N” value is given as “no effect”. At gelsolin [3] (setting [7]), the “inflection point (pMg) of ATP-N anisotropy decrease” value came to 2.3. Also, the IC50 on gelsolin [3] (0.5 μM ATP-N, 5 μM gelsolin, read-out: magnesium concentration at which 50% of ATP-N remains bound to gelsolin) amounted to 5 ± 1.1 mM.

In the case of FURA-2FF, the Kd in data set [5] is 25 µM.

As to N^6-(6-amino)hexyl-ATP-ATTO-532 [ATP-N], at gelsolin [3] (0.5 μM ATP-N, 5 μM gelsolin), the “anisotropy of ATP-N at saturation” value is given as 0.15 ± 0.006. The Kd on gelsolin [3] (0.5 μM ATP-N, absence of divalent cations) turned out to be 710 ± 520 nM; on gelsolin [3] (50 mM KCl, 1 mM MgCl2 (pMg 3), titration with gelsolin), 1800 nM; on gelsolin [3] (100 mM KCl) it was 1270 ± 600 nM; on gelsolin [3] (100 mM KCl, 1 mM MgCl2 (pMg 3)) it was 1580 ± 850 nM; at gelsolin [3] (120 mM KCl) it was 1420 ± 270 nM; at gelsolin [3] (120 mM KCl, 1 mM MgCl2 (pMg 3)) it was 2340 ± 730 nM. The Kd at gelsolin [3] (actin polymerization conditions, above 100 μM calcium) amounted to 8050 ± 1320 nM.

In the case of PtdIns-(4,5)-P2-fluorescein [PIP2-F], the “CMC of PIP2-F” value in data set [6] (1 mM CaCl2 with 100 mM KCl or 100 mM KCl and 1 mM MgCl2) is on record as ~ 0.5 μM; in data set [6] (absence of calcium), ~ 10 μM. For the same compound, in data set [6] (at or below 0.5 μM, buffer conditions tested), the micelle formation result is given as “failed to form micelles”. Besides, the “steady-state anisotropy of PIP2-F with gelsolin” value is 0.04 at gelsolin [4] (0.5 μM PIP2-F, 5 μM gelsolin, no ATP, 1 mM Ca2+ (pCa 3)) and “approximately 0.12” at gelsolin [4] (0.5 μM PIP2-F, 5 μM gelsolin, no ATP, ≈0–10 μM Ca2+ (pCa 15–5)). Moreover, the Kd on gelsolin [4] (0.5 μM PIP2-F, absence of divalent cations, read-out: Kd of PIP2-F for gelsolin) was 840 ± 390 nM; on gelsolin [4] (100 mM KCl, read-out: Kd of PIP2-F for gelsolin), 1350 ± 700 nM; on gelsolin [4] (120 mM KCl, read-out: Kd of PIP2-F for gelsolin) it was 3120 ± 1700 nM; at gelsolin [4] (actin polymerization conditions (10 μM Ca2+, 1 mM Mg2+, 50 mM K+), absence of ATP, read-out: Kd of PIP2-F for gelsolin), 2700 ± 200 nM; at gelsolin [4] (no ATP, 1–10 μM calcium (pCa 6–5), absence of KCl and magnesium, read-out: Kd of PIP2-F/gelsolin interaction), under 1000 nM; at gelsolin [4] (no ATP, entire calcium range, absence of KCl and magnesium, read-out: Kd of PIP2-F/gelsolin interaction), under 20000 nM.
